In EP0400440B1, “Amino acid derivative anticonvulsant” (RESEARCH CORPORATION TECHNOLOGIES, INC., priority 1989, dated 1990):

Key:
[1] = Horizontal screen test (HS), neurological impairment; format: in vivo; settings: mouse, in vivo; mice; determined using the horizontal screen test (footnote xx); 95% confidence intervals in brackets; read-out: Tox TD50
Excerpt: (§1) Pharmacology. The following compounds were'tested for anticonvulsant activity using male Carworth Farms #1 mice: • N-Acetyl-D,L-alanine-N'-benzylamide • N-Acetyl-D-alanine-N'-benzylamide • N-Acetyl-L-alanine-N'-benzylamide • N-Acetyl-D,L-phenylglycine-N'-methylamide • N-Acetylglycine-N-benzylamide • N-Acetyl-D,L-valine-N-benzylamide • N-Acetyl-D,L-phenylglycine-N-benzylamide • N-Acetyl-D-phenylglycine-N-benzylamide • N-Acetyl-L-phenylglycine-N-benzylamide • N-Acetyl-D,L-alanine-N-(3-methoxy)benzylamide • N-Trimethylacetyl-D,L-alanine-N-benzylamide • N-Acetyl-D,L-methionine-N-benzylamide • N-Acetyl-D,L-alanine-N'-(3-fluoro)benzylamide • D,L-α-Acetamido-N-benzyl-3-thiopheneacetamide • D,L-α-Acetamido-N-benzyl-2-thiopheneacetamide • D,L-α-Acetamido-N-benzyl-2-furanacetamide • D,L-α-Acetamido-N-benzyl-2-pyrroleacetamide • D,L-2-Acetamido-N-benzyl-2-ethoxyacetamide • D,L-α-Acetamido-N-benzyl-2-(5-methylfuran)acetamide • D,L-α-Acetamido-N-benzyl-2-benzofuranacetamide • D,L-α-Acetamido-N-benzyl-2-benzo[b]thiopheneacetamide • D,L-α-Acetamido-N-benzyl-2-(5-methylpyrrole)acetamide • D,L-α-Acetamido-N-(2-fluorobenzyl)-2-furanacetamide • D,L-α-Acetamido-N-(3-fluorobenzyl)-2-furanacetamide • D,L-α-Acetamido-N-(4-fluorobenzyl)-2-furanacetamide • D,L-α-Acetamido-N-(2,5-difluorobenzyl)-2-furanacetamide • D,L-α-Acetamido-N-(2,6-difluorobenzyl)-2-furanacetamide • D-(-)-α-Acetamido-N-benzyl-2-furanacetamide • L-(+)-α-Acetamido-N-benzyl-2-furanacetamide • D,L-2-Acetamido-4-pentenoic acid-N-benzylamide • D,L-2-Acetamido-N-benzyl-2-(1-morpholine)acetamide (reference compound) • D,L-2-Acetamido-N-benzyl-2-(N-anilino)acetamide • D,L-2-Acetamido-N-benzyl-2-(methylamino)acetamide • D,L-2-Acetamido-N-benzyl-2-(ethylamino)acetamide • D,L-2-Acetamido-N-benzyl-3-indoleacetamide (reference compound)
(§2) N-Acetyl-D,L-alanine-N'-benzylamide was tested at […] as well. […] Maximal electroshock seizures (MES) were elicited with a 60 cycle alternating current of 50 mA intensity (5-7 times that necessary to elicit minimal electroshock seizures) delivered for 0.2 sec via corneal electrodes. A drop of 0.9% saline was instilled in the eye prior to application of the electrodes so as to prevent the death of the animal. Protection in this test was defined as as the abolition of the hind limb tonic extension component of the seizure. The Subcutaneous Pentylenetetrazole (Metrazol^R) Seizure Threshold Test (sc Met) entailed the administration of 85 mg/kg of pentylenetetrazole as a 0.5% solution subcutaneously in the posterior midline. […] Protection was defined as a failure to observe even a threshold seizure (a single episode of clonic spasms of at least 5 sec duration). The effects of the compounds on forced and spontaneous motor activity were evaluated in mice using the Rotorod Test (Tox) or, in some cases, as indicated herein, a horizontal screen assay (HS). The procedure for the rotorod test is described in J. Am. Pharm. Assoc., 46, 208-209 (1957). In the rotorod test, the animal was placed on a one-inch diameter knurled plastic rod rotating at 6 rpm after the administration of the drug. Normal mice can remain on a rod rotating at this speed indefinitely. Neurologic toxicity was defined as the failure of the animal to remain on the rod for one minute. In the horizontal screen test, previously trained mice were dosed with the compound and placed individually on top of a square (13 cm X 13 cm) wire screen (no. 4 mesh) which was mounted on a metal rod. The rod was rotated 180°, and the number of mice that returned to the top of the screen was determined. Inability to climb to the top within one minute was defined as "neurological impairment". This procedure is described in Pharmacol. Biochem. Behav. 6, 351-353 (1977).
(§3) The dose effect behavior of the compounds was evaluated using the above-described procedures by the administration of varying dose levels, treating normally eight mice at each dose. […]

[2] = tested on: male Carworth Farms #1 mice; experiment: Maximal electroshock seizure test (MES); format: in vivo; settings: Mus musculus, maximal electroshock seizures
Excerpt: as §1, §2, §3

[3] = tested on: male Carworth Farms #1 mice; experiment: Subcutaneous Pentylenetetrazole (Metrazol) Seizure Threshold Test (sc Met); format: in vivo; settings: 85 mg/kg pentylenetetrazole subcutaneously, 95% confidence intervals in brackets
Experimental: Pharmacology. […]
N-Acetyl-D,L-alanine-N'-benzylamide was tested at 600 mg/mL as well. […] The effects of the compounds on forced and spontaneous motor activity were evaluated in mice using the Rotorod Test (Tox) or, in some cases, as indicated herein, a horizontal screen assay (HS). […] The rod was rotated 180°, and the number of mice that returned to the top of the screen was determined. […]
as §3

[4] = Rotorod Test (Tox), neurologic toxicity; settings: mouse, in vivo, mice, median toxic dose, 95% confidence intervals in brackets
Experimental: The effects of the compounds on forced and spontaneous motor activity were evaluated in mice using the Rotorod Test (Tox) or, in some cases, as indicated herein, a horizontal screen assay (HS). […] In the rotorod test, the animal was placed on a one-inch diameter knurled plastic rod rotating at 6 rpm after the administration of the drug. Normal mice can remain on a rod rotating at this speed indefinitely. Neurologic toxicity was defined as the failure of the animal to remain on the rod for one minute. In the horizontal screen test, previously trained mice were dosed with the compound and placed individually on top of a square (13 cm X 13 cm) wire screen (no. 4 mesh) which was mounted on a metal rod. The rod was rotated 180°, and the number of mice that returned to the top of the screen was determined. Inability to climb to the top within one minute was defined as "neurological impairment".

[5] = tested on: male Carworth Farms #1 mice; experiment: Horizontal screen test (HS), neurological impairment; format: in vivo; settings: determined using the horizontal screen test (footnote xx), 95% confidence intervals in brackets
Excerpt: as §1, §2, §3

[6] = 50 mA, 0.2 sec, corneal electrodes, 95% confidence intervals in brackets

SMILES	TD50 [1] [mg/kg]	ED50 [2, 6] [mg/kg]	further results
CC(=O)NC(C(=O)NCc1ccccc1)c1cc2ccccc2o1 (racemic) [(D,L)-α-Acetamido-N-benzyl-2-benzofuranacetamide]	100 to 300	100 to 300	
CC(=O)NC(C(=O)NCc1ccc(F)cc1)c1ccco1 (racemic) [(D,L)-α-Acetamido-N-(4-fluorobenzyl)-2-furanacetamide]	144	12.7	
CC(=O)NC(C(=O)NCc1ccccc1)N1CCOCC1 (racemic) [(D,L)-2-Acetamido-N-benzyl-2-(1-morpholine)acetamide, reference compound]		30 to 100	
CC(=O)NC(C(=O)NCc1c(F)cccc1F)c1ccco1 (racemic) [(D,L)-α-Acetamido-N-(2,6-difluorobenzyl)-2-furanacetamide]		25 to 100	
CC(=O)NC(C(=O)NCc1cc(F)ccc1F)c1ccco1 (racemic) [(D,L)-α-Acetamido-N-(2,5-fluorobenzyl)-2-furanacetamide]		23.8	
C=CCC(NC(C)=O)C(=O)NCc1ccccc1 (racemic) [(D,L)-2-Acetamido-4-pentenoic Acid-N-benzylamide]		33.6	
CC(=O)NC(C(=O)NCc1cccc(F)c1)c1ccco1 (racemic) [(D,L)-α-Acetamido-N-(3-fluorobenzyl)-2-furanacetamide]	136	13.3	
O=C1NC(=O)C(c2ccccc2)(c2ccccc2)N1 [phenytoin]			sc Met ED50 [3]: not effective
CC(=O)NC(C(=O)NCc1ccccc1)c1ccco1 (racemic) [D,L-α-Acetamido-N-benzyl-2-furanacetamide]	23.8		TD50 [4]: > 300 mg/kg
CC(=O)NC(Nc1ccccc1)C(=O)NCc1ccccc1 (racemic) [(D,L)-2-Acetamido-N-benzyl-2-(N-anilino)acetamide]			ED50 ([2]; result given as footnote symbol): ≥ 300 mg/kg
CCNC(NC(C)=O)C(=O)NCc1ccccc1 (racemic) [(D,L)-2-Acetamido-N-benzyl-2-(ethylamino)acetamide]		42.4	
CC(=O)NC(C(=O)NCc1ccccc1F)c1ccco1 (racemic) [(D,L)-α-Acetamido-N-(2-fluorobenzyl)-2-furanacetamide]		40	
CC(=O)NC(C(=O)NCc1ccccc1)c1cc2ccccc2s1 (racemic) [(D,L)-α-Acetamido-N-benzyl-2-benzo[b]thiopheneacetamide]	100 to 300	100 to 300	
CC(=O)NC(C(=O)NCc1ccccc1)c1ccc(C)[nH]1 (racemic) [(D,L)-α-Acetamido-N-benzyl-2-(5-methylpyrrole)acetamide]		36.5	
CC(=O)NC(C(=O)NCc1ccccc1)c1ccc(C)o1 (racemic) [(D,L)-α-Acetamido-N-benzyl-2-(5-methylfuran)acetamide]		19.2	Tox TD50 [5]: 75.4^xx mg/kg
CNC(NC(C)=O)C(=O)NCc1ccccc1 (racemic) [(D,L)-2-Acetamido-N-benzyl-2-(methylamino)acetamide]		44.5	TD50 [4]: 95 mg/kg
